For 32 compounds, fold induction and EC50 results are on record in patent US9783510B2, “Small molecule mediated transcriptional induction of E-cadherin” (Vanderbilt University, priority 2014, dated 2017).

In this test the test system is E-cadherin expression in SW620 cells. The test can be described thus: E-cadherin expression, in-cell Western (ICW), SW620 cells. In kind it is cell-based. The settings on record: Homo sapiens; for fold induction at 10 µM: SW-620, 24 h, change in expression level of E-cadherin in response to 10 μM compound, 24 hours, SW620 cells; for EC50: SW-620, inducement of E-cadherin expression in SW620 cells. The method, then:
SW620 and H520 cells (5×10^4/100 μL) were seeded in a 96-well plate prior to treatment. Cells were treated with 10 μM concentration of synthesized compound in quadruplicate for 24 hours in RPMI 1640 supplemented medium and 100 μg/mL penicillin-streptomycin. The cells were then fixed with 100% methanol for 20 minutes at 4° C. The wells were then washed 2 times with PBS, permeabilized in 2% bovine serum albumin (BSA) and 0.2% TritonX-100 in PBS for 30 minutes at room temperature with gentle agitation, and blocked in LI-COR blocking buffer for 30 minutes at room temperature with gentle agitation. The cells were then incubated with the following primary antibodies: anti-E-Cadherin (1:500) and anti-α-Tubulin (1:1000) diluted in blocking buffer (1:1 dilution in PBS) for 2 hours at room temperature with gentle agitation. The cells were washed 4 times in PBS-T for 5 minutes each, and then incubated with the following secondary antibodies conjugated to a fluorescent entity: IRDye 800-conjugated goat anti-rabbit IgG (1:1000) and IRDye-700-conjugated goat anti-mouse IgG (1:2000) in blocking buffer (1:1 dilution in PBS) with gentle agitation for 1 h at room temperature. The cells were washed 4 times in PBS-T for 5 minutes each followed by a single wash with PBS. All liquid was removed from the wells and the plates were visualized and analyzed on the Odyssey IR imaging system (LI-COR Biosciences).
The assay was further optimized in the following manner. The cells were washed 2 times with PBS, fixed in 100% methanol at room temperature for 15 minutes, and again washed 2 times with PBS. The cells were then incubated with the following primary antibodies: anti-E-Cadherin (1:200) and anti-α-Tubulin (1:2000) diluted in ice cold 2% bovine serum albumin (BSA) and 0.2% TritonX-100 in PBS for 1 hour at room temperature with gentle agitation. The cells were washed 2 times in PBS and then incubated with the following secondary antibodies conjugated to a fluorescent entity: Licor 800-conjugated goat anti-rabbit IgG (1:2000) and IRDye-700-conjugated goat anti-mouse IgG (1:2000) in ice cold 2% BSA and 0.2% TritonX-100 in PBS with gentle agitation for 45 minutes at room temperature. The wells were washed 2 times in PBS, dried, and analyzed as previously mentioned.
N-Acetamidoalkyl-5-arylisoxazole-3-carboxamide analogs were synthesized as described above. Changes in expression level of E-cadherin in response to 10 μM compound in SW620 cells was determined in a cell-based functional assay as described above, and the data are shown in Table III. The compound number corresponds to the compound numbers used in Table II.
EC50 of inducement of E-cadherin expression in SW620 cells was determined in a cell-based functional assay as described above, and the data are shown in Table V. The compound number corresponds to the compound numbers used in Table IV.

Broadly, the fold induction is the ratio of treated to control signal. Higher therefore signals a large rise in signal. Take `O=C(NCCCNC(=O)c1cncc(Cl)n1)c1cc(-c2cccs2)on1` [Compound 83, N-(3-(6-chloropyrazine-2-carboxamido)propyl)-5-(thiophen-2-yl)isoxazole-3-carboxamide]: the fold induction at 10 µM was 2.64.
The same measure, in the same setting: with `O=C(CCCC[C@@H]1SC[C@@H]2NC(=O)N[C@@H]21)Nc1cccc(C(=O)NCCCNC(=O)c2cc(-c3ccccc3)on2)c1` [Compound 18, N-(3-(3-(5-((3aS,4S,6aR)-2-oxohexahydro-1H-thieno[3,4-d]imidazol-4-yl)pentanamido)benzamido)propyl)-5-phenylisoxazole-3-carboxamide] the figure was 1.05.
The same measure, in the same setting: with `Nc1ccc(C(=O)NCCCNC(=O)c2cc(-c3cccs3)on2)cn1` [Compound 79, N-(3-(6-aminonicotinamido)propyl)-5-(thiophen-2-yl)isoxazole-3-carboxamide] the figure was 3.58; with `Cc1ccnc(O)c1C(=O)NCCCNC(=O)c1cc(-c2cccs2)on1` [Compound 51, N-(3-(2-hydroxy-4-methylnicotinamido)propyl)-5-(thiophen-2-yl)isoxazole-3-carboxamide], 2.73; with `O=C(NCCCNC(=O)c1cc(-c2ccccc2)on1)c1cocn1` [Compound 29, N-(3-(oxazole-4-carboxamido)propyl)-5-phenylisoxazole-3-carboxamide], 3.35.
Still for that read-out and setting: with `O=C(NCCCNC(=O)c1cc(Br)cnc1O)c1cc(-c2ccccc2)on1` [Compound 68, N-(3-(5-bromo-2-hydroxynicotinamido)propyl)-5-phenylisoxazole-3-carboxamide] the figure was 1.61; with `O=C(NCCNC(=O)c1cnccc1O)c1cc(-c2ccccc2)on1` [Compound 12, N-(2-(4-hydroxynicotinamido)ethyl)-5-phenylisoxazole-3-carboxamide], 3.25; with `O=C(NCCCNC(=O)c1cc(-c2ccccc2)on1)c1ccnc(O)c1` [Compound 64, N-(3-(2-hydroxyisonicotinamido)propyl)-5-phenylisoxazole-3-carboxamide], 1.8.
In turn, `O=C(NCCCNC(=O)c1cc(-c2ccccc2)on1)c1ccc(O)nc1` [Compound 67, N-(3-(6-hydroxynicotinamido)propyl)-5-phenylisoxazole-3-carboxamide] came in with a fold induction at 10 µM of 1.22.
Still for that read-out and setting: the result for `O=C(NCCCNC(=O)c1ncco1)c1cc(-c2ccccc2)on1` [Compound 34, N-(3-(oxazole-2-carboxamido)propyl)-5-phenylisoxazole-3-carboxamide] reads 2.77; that for `O=C(NCCCNC(=O)c1ccc(Br)o1)c1cc(-c2cccs2)on1` [Compound 74, N-(3-(5-bromofuran-2-carboxamido)propyl)-5-(thiophen-2-yl)isoxazole-3-carboxamide], 3.06.
On the same count and under the same terms, with `Cc1cncc(C(=O)NCCCNC(=O)c2cc(-c3cccs3)on2)n1` [Compound 97, N-(3-(6-methylpyrazine-2-carboxamido)propyl)-5-(thiophen-2-yl)isoxazole-3-carboxamide] the figure was 3.82; with `O=C(NCCNC(=O)c1cc(-c2ccccc2)on1)c1cccc(O)c1` [Compound 8, N-(2-(3-hydroxybenzamido)ethyl)-5-phenylisoxazole-3-carboxamide], 2.44.
Broadly, the EC50 is the concentration at which the effect is half-maximal. A higher EC50 goes with a need for much substance. Take `O=C(NCCCNC(=O)c1cc(-c2cccs2)on1)c1cccnc1` [Compound 39, N-(3-(nicotinamido)propyl)-5-(thiophen-2-yl)isoxazole-3-carboxamide]: the fold induction at 10 µM worked out at 4.56 and the 50% effective concentration (EC50) was found to be 5.02 µM.
Consider `O=C(NCCNC(=O)c1cc(-c2ccccc2)on1)c1ccc(O)c(O)c1` [Compound 9, N-(2-(3,4-dihydroxybenzamido)ethyl)-5-phenylisoxazole-3-carboxamide], for which the fold induction at 10 µM turned out to be 1.89.
Still for that read-out and setting: with `O=C(NCCCNC(=O)c1ccncc1O)c1cc(-c2ccccc2)on1` [Compound 59, N-(3-(3-hydroxyisonicotinamido)propyl)-5-phenylisoxazole-3-carboxamide] the figure was 1.26.
The compound `O=C(NCCCNC(=O)c1cc(Br)cnc1O)c1cc(-c2cccs2)on1` [Compound 50, N-(3-(5-bromo-2-hydroxynicotinamido)propyl)-5-(thiophen-2-yl)isoxazole-3-carboxamide] displayed a fold induction at 10 µM of 1.4.
Same read-out and setting: the result for `CC(C)(C)c1ccc(C(=O)NCCCNC(=O)c2cc(-c3cccs3)on2)o1` [Compound 98, N-(3-(5-(tert-butyl)furan-2-carboxamido)propyl)-5-(thiophen-2-yl)isoxazole-3-carboxamide] reads 3.65; that for `O=C(NCCCNC(=O)c1cc(-c2cccs2)on1)c1ccc(O)cn1` [Compound 41, N-(3-(5-hydroxypicolinamido)propyl)-5-(thiophen-2-yl)isoxazole-3-carboxamide], 2.77; that for `Cc1cc(C)c(C(=O)NCCCNC(=O)c2cc(-c3cccs3)on2)o1` [Compound 110, N-(3-(3,5-dimethylfuran-2-carboxamido)propyl)-5-(thiophen-2-yl)isoxazole-3-carboxamide], 3.74.
Same read-out and setting: with `O=C(NCCCNC(=O)c1ccc(C(F)(F)F)o1)c1cc(-c2cccs2)on1` [Compound 76, 5-(thiophen-2-yl)-N-(3-(5-(trifluoromethyl)furan-2-carboxamido)propyl)isoxazole-3-carboxamide] the figure was 2.68.
Take `CCc1ccc(C(=O)NCCCNC(=O)c2cc(-c3cccs3)on2)o1` [Compound 101, N-(3-(5-ethylfuran-2-carboxamido)propyl)-5-(thiophen-2-yl)isoxazole-3-carboxamide]: the fold induction at 10 µM is 4.24 and the EC50 is 4.12 µM.
`O=C(NCCCNC(=O)c1cc2ccccc2o1)c1cc(-c2cccs2)on1` [Compound 85, N-(3-(benzofuran-2-carboxamido)propyl)-5-(thiophen-2-yl)isoxazole-3-carboxamide] yielded a fold induction at 10 µM of 3.26.
On the same count and under the same terms, the result for `O=C(NCCCNC(=O)c1cncc(Cl)n1)c1cc(-c2ccccc2)on1` [Compound 94, N-(3-(6-chloropyrazine-2-carboxamido)propyl)-5-phenylisoxazole-3-carboxamide] reads 3.69.
Same read-out and setting: the result for `COC(=O)c1ccc(C(=O)NCCCNC(=O)c2cc(-c3cccs3)on2)nc1` [Compound 48, methyl 6-((3-(5-(thiophen-2-yl)isoxazole-3-carboxamido)propyl)carbamoyl)nicotinate] reads 1.48; that for `Cn1cnc(C(=O)NCCCNC(=O)c2cc(-c3ccccc3)on2)c1` [Compound 116, N-(3-(1-methyl-1H-imidazole-4-carboxamido)propyl)-5-phenylisoxazole-3-carboxamide], 2.6; that for `O=C(NCCCNC(=O)c1cc2ccccc2o1)c1cc(-c2ccccc2)on1` [Compound 96, N-(3-(benzofuran-2-carboxamido)propyl)-5-phenylisoxazole-3-carboxamide], 2.58.
On the same count and under the same terms, with `Cc1scnc1C(=O)NCCNC(=O)c1cc(-c2ccccc2)on1` [Compound 11, N-(2-(5-methylthiazole-4-carboxamido)ethyl)-5-phenylisoxazole-3-carboxamide] the figure was 2.08.
In turn, `O=C(NCCCNC(=O)c1cnc2ccccn12)c1cc(-c2ccccc2)on1` [Compound 87, N-(3-(imidazo[1,2-a]pyridine-3-carboxamido)propyl)-5-phenylisoxazole-3-carboxamide] came in with a fold induction at 10 µM of 2.4.
`Nc1cncc(C(=O)NCCCNC(=O)c2cc(-c3ccccc3)on2)n1` [Compound 118, N-(3-(6-aminopyrazine-2-carboxamido)propyl)-5-phenylisoxazole-3-carboxamide] displayed a fold induction at 10 µM of 4.38 and a concentration giving a half-maximal response (EC50) of 5.45 µM.
For the compound `O=C(NCCCNC(=O)C1CCCCO1)c1cc(-c2ccccc2)on1` (centres unmarked) [Compound 121, 5-phenyl-N-(3-(tetrahydro-2H-pyran-2-carboxamido)propyl)isoxazole-3-carboxamide], the fold induction at 10 µM worked out at 3.74.
The same measure, in the same setting: with `CC(C)(C)c1ccc(C(=O)NCCCNC(=O)c2cc(-c3ccccc3)on2)o1` [Compound 112, N-(3-(5-(tert-butyl)furan-2-carboxamido)propyl)-5-phenylisoxazole-3-carboxamide] the figure was 3.86.
